Results published in patent publication US8772500B2, “TRPV3 modulators” (AbbVie Inc., priority 2011, dated 2014).

Tests used:
[1] = In vitro rat microsomal stability assay; assay type: in vitro ADME, rat (Sprague-Dawley)
Summary of the method: (§1)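 Compounds were incubated at 37 °C with Sprague-Dawley rat liver microsomes (rat assay) or human liver microsomes (human assay) to measure metabolic stability. NADPH was added, including to the time-zero samples.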

[2] = In vitro human microsomal stability assay; assay type: in vitro ADME
Summary of the method: as §1

[3] = target: T1, human TRPV3 (Homo sapiens, UniProt Q8NET8); assay: In vitro antagonism of recombinant human TRPV3 activation (FLIPR Tetra calcium assay, 2-APB as agonist); assay type: cell-based; conditions: HEK293 cells stably expressing human TRPV3; 2-APB 80 μM; range class; read-out: IC50 (reported range)
T1 construct: expressed in transfected cells
T1 sequence (Q8NET8 1-790): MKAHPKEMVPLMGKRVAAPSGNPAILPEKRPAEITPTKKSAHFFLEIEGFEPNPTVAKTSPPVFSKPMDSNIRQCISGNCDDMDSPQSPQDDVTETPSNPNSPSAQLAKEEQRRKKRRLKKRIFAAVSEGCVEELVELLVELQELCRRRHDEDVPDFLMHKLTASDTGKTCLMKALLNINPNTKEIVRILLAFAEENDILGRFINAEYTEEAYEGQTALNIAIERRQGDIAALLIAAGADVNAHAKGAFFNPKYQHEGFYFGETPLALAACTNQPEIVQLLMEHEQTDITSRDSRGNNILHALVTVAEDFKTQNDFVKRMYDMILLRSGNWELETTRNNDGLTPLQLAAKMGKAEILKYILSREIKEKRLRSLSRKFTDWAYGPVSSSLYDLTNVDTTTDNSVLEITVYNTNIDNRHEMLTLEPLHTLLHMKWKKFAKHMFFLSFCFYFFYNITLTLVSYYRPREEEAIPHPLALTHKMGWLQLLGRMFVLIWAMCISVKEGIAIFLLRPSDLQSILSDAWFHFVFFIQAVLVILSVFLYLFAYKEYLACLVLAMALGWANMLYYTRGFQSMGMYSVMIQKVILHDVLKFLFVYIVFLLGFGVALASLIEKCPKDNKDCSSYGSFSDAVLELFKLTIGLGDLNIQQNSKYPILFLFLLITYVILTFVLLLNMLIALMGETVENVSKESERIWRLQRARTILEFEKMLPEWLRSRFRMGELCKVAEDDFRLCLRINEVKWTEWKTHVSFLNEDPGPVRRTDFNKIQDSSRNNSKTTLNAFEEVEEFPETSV
Summary of the method: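 HEK293 cells stably expressing human TRPV3, loaded with Calcium-4 dye for 90-120 min; compound added 3 min before 2-APB at 80 μM (its EC80). Fluorescence (max minus min) over 10 min expressed as % of maximal 2-APB response without antagonist; IC50 mostly averaged from n≧2 runs.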

[4] = Sprague-Dawley, rat, 0.5 h, 0.5 μM, pH 7.4
[5] = 0.5 μM substrate, 0.25 mg/mL microsomal protein, pH 7.4, 37° C., NADPH, 30 minutes

Row | SMILES | RAT MICROSOMAL STABILITY (% REMAINING AFTER 30 MINUTES) [1, 4] [%] | HUMAN MICROSOMAL STABILITY (% REMAINING AFTER 30 MINUTES) ([2]; human, 0.5 h, 0.5 μM, pH 7.4) [%] | IC50 [3] [nM] | RAT MICROSOMAL STABILITY (% REMAINING AFTER 30 MINUTES) [1, 5] [%] | HUMAN MICROSOMAL STABILITY (% REMAINING AFTER 30 MINUTES) [2, 5] [%]
1 | OC(C1CCCc2cccnc21)C1(c2ccc(F)c(F)c2)CCC1 (stereo not drawn) [Example 169, (anti)-[1-(3,4-difluorophenyl)cyclobutyl][5,6,7,8-tetrahydroquinolin-8-yl]-methanol] | <0.01 | <0.01 | 5100 to 20000 |  | 
2 | OC(c1ccccn1)C1(C2CCCc3ccccc32)CCC1 (stereo not drawn) [Example 56, pyridin-2-yl[1-(1,2,3,4-tetrahydronaphthalen-1-yl)cyclobutyl]methanol] | 1.1 | 0.42 | 1100 to 5000 |  | 
3 | N[C@@H]1CCC[C@H]1[C@@H](O)C1(c2ccc(OC(F)(F)F)cc2)CCC1 [Example 223, (R)-[(1R,2R)-2-aminocyclopentyl]{1-[4-(trifluoromethoxy)phenyl]-cyclobutyl}methanol] | 65 | >85 | 1100 to 5000 |  | 
4 | O=C1CC(c2cccc(OC(F)(F)F)c2)(C(O)c2ccccn2)C1 (stereo not drawn) [Example 237, 3-[hydroxy(pyridin-2-yl)methyl]-3-[3-(trifluoromethoxy)phenyl]-cyclobutanone] | 50 | 51 | 1100 to 5000 |  | 
5 | OC(C1CCCc2cccnc21)C1(c2cccc(C(F)(F)F)c2)CCC1 (stereo not drawn) [Example 179, (anti)-5,6,7,8-tetrahydroquinolin-8-yl{1-[3-(trifluoromethyl)phenyl]-cyclobutyl}methanol] | <0.01 | <0.01 | 1100 to 5000 |  | 
6 | OC(c1ccccn1)C1(c2cccc(C(F)(F)F)c2)CC2(C1)OCCO2 (stereo not drawn) [Example 242, pyridin-2-yl{2-[3-(trifluoromethyl)phenyl]-5,8-dioxaspiro[3.4]oct-2-yl}-methanol] | <0.01 | 45 | 5100 to 20000 |  | 
7 | O=C1CC(c2ccc(F)c(Cl)c2)(C(O)c2ccccn2)C1 (stereo not drawn) [Example 258, 3-(3-chloro-4-fluorophenyl)-3-[hydroxy(pyridin-2-yl)methyl]cyclobutanone] | 53 | 70 | 5100 to 20000 |  | 
8 | OC(c1ccccn1)C1(c2cccc(OC(F)(F)F)c2)CCNCC1 (stereo not drawn) [Example 148, pyridin-2-yl{4-[3-(trifluoromethoxy)phenyl]piperidin-4-yl}methanol] |  |  | 1100 to 5000 | 53 | >85
9 | OC(c1ccccn1)C1(c2ccc(Cl)c(Cl)c2)CC(F)(F)C1 (stereo not drawn) [Example 82, [1-(3,4-dichlorophenyl)-3,3-difluorocyclobutyl](pyridin-2-yl)methanol] | 16 | 35 | 501 to 1000 |  | 
10 | OC1CC(c2ccnc(C(F)(F)F)c2)(C(O)c2ccccn2)C1 [Example 306, trans-3-[(S)-hydroxy(pyridin-2-yl)methyl]-3-[2-(trifluoromethyl)pyridin-4-yl]cyclobutanol] | >85 | >85 | 50 to 500 |  | 
11 | OC(c1ccccn1)C1(c2cccc(OC(F)(F)F)c2)CCCO1 (stereo not drawn) [Example 92, (anti)-pyridin-2-yl{2-[3-(trifluoromethoxy)phenyl]tetrahydrofuran-2-yl}-methanol] | 0.23 | 2.7 | 50 to 500 |  | 
12 | NC1CCCC1C(O)C1(c2ccc(OC(F)(F)F)cc2)CCC1 (stereo not drawn) [Example 206, (2-aminocyclopentyl){1-[4-(trifluoromethoxy)phenyl]cyclobutyl}methanol] | 62 | 83 | 1100 to 5000 |  | 
13 | CC1(O)CC(c2cccc(C(F)(F)F)c2)(C(O)c2ccccn2)C1 (single isomer, unassigned) [Example 236] | 41 | 54 | 501 to 1000 |  | 
14 | NC1CCCCC1C(O)C1(c2cccc(C(F)(F)F)c2)CCC1 (stereo not drawn) [Example 212, (2-aminocyclohexyl){1-[3-(trifluoromethyl)phenyl]cyclobutyl}methanol] | 3.9 | >85 | 1100 to 5000 |  | 
15 | O=C1CC(c2ccc(Cl)c(Cl)c2)([C@H](O)c2ccccn2)C1 [Example 117, 3-(3,4-dichlorophenyl)-3-[(S)-hydroxy(pyridin-2-yl)methyl]cyclobutanone] | 50 | 18 | 1100 to 5000 |  | 
16 | OC(c1ccccn1)C1(c2ccc(OC(F)(F)F)cc2)CCOCC1 (stereo not drawn) [Example 67, pyridin-2-yl{4-[4-(trifluoromethoxy)phenyl]tetrahydro-2H-pyran-4-yl}-methanol] | 47 | 58 | 1100 to 5000 |  | 
17 | CC(c1ccccc1Cl)C1(C(O)c2ccccn2)CCC1 (stereo not drawn) [Example 50, {1-[1-(2-chlorophenyl)ethyl]cyclobutyl}(pyridin-2-yl)methanol] | 0.18 | 0.08 | 1100 to 5000 |  | 
18 | NC1CCC1C(O)C1(c2cccc(C(F)(F)F)c2)CCC1 (stereo not drawn) [Example 213, (2-aminocyclobutyl){1-[3-(trifluoromethyl)phenyl]cyclobutyl}methanol] | 72 | >85 | 1100 to 5000 |  | 
19 | OC(c1ccccn1)C1(c2ccc(C(F)(F)F)cc2)CCCO1 (stereo not drawn) [Example 88, (anti)-pyridin-2-yl{2-[4-(trifluoromethyl)phenyl]tetrahydrofuran-2-yl}-methanol] | 7.0 | 38 | 50 to 500 |  | 
20 | OC(c1ccccn1)C1(c2ccc(OC(F)(F)F)cc2)CCCO1 (stereo not drawn) [Example 95, (syn)-pyridin-2-yl{2-[4-(trifluoromethoxy)phenyl]tetrahydrofuran-2-yl}-methanol] | 0.61 | 57 | 1100 to 5000 |  | 
21 | CON=C1CC(c2ccc(OC(F)(F)F)cc2)([C@H](O)c2ccccn2)C1 (stereo partly drawn) [Example 249, (S)-{3-(methoxyimino)-1-[4-(trifluoromethoxy)phenyl]cyclobutyl}(pyridin-2-yl)methanol] | 3.2 | 61 | 1100 to 5000 |  | 
22 | Cc1ccccc1C(C)C1(C(O)c2ccccn2)CCC1 (stereo not drawn) [Example 45, {1-[1-(2-methylphenyl)ethyl]cyclobutyl}(pyridin-2-yl)methanol] | 0.02 | 0.03 | 1100 to 5000 |  | 
23 | CN1CCC(c2ccc(OC(F)(F)F)cc2)(C(O)c2ccccn2)CC1 (stereo not drawn) [Example 145, {1-methyl-4-[4-(trifluoromethoxy)phenyl]piperidin-4-yl}(pyridin-2-yl)-methanol] |  |  | 1100 to 5000 | 42 | 68
24 | OC(c1ccccn1)C1(Cc2cccc(F)c2)CCC1 (stereo not drawn) [Example 254, [1-(3-fluorobenzyl)cyclobutyl](pyridin-2-yl)methanol] | 0.57 | 1.1 | 1100 to 5000 |  | 
25 | OC(c1ccccn1)C1(c2cccc(Cl)c2)CCCO1 (stereo not drawn) [Example 105, (syn)-[2-(3-chlorophenyl)tetrahydrofuran-2-yl](pyridin-2-yl)methanol] | 0.040 | 42 | 5100 to 20000 |  | 
26 | N[C@H]1CCC[C@H]1[C@@H](O)C1(c2ccccc2F)CCC1 [Example 226, (R)-[(1R,2S)-2-aminocyclopentyl][1-(2-fluorophenyl)cyclobutyl]methanol] | <0.01 | >85 | 501 to 1000 |  | 
